According to EP3030673B1, “SCREENING AND IDENTIFICATION OF RESISTANT MARKERS IN CRUSTACEAN” (priority 2013, dated 2015):
Where two headings read alike, the source gives them in different places.

Assays:
Format in all cases: in vivo, Lepeophtheirus salmonis
[1] = test system: LsHybridV (LsVikna as its maternal strain); assay: Deltamethrin bioassay on adult male sea lice, hybrid strain with resistant maternal strain
Protocol: (§1) In order to hybridise the lice strains for the inheritance experiment, the parental strains were first synchronised and multiplied up in numbers by simultaneously infecting 20 Atlantic salmon with copepods. In total, 1000 copepods per strain were added. At 32 days post infection (dpi), all salmon were anaesthetised and approximately half of the lice were carefully removed using tweezers. At this stage, lice were predominantly preadult 2 females and adult males, with a few percent adult females and preadult 2 males. The lice removed from the salmon were sexed, and then used to create the reciprocal hybrid strains. This was achieved by combining 4-5 females from the resistant strain and 4-5 males from the sensitive strain (LsHybridV), and 4-5 females from the sensitive strain and 4-5 males from the resistant strain (LsHybridG). Only preadult 2 females were used. These combinations were each placed into 2 replicate tanks in order to make two hybrid strains (4 groups and 8 tanks at this stage). At 67-68 dpi, all lice were removed from the four strains. Egg strings were removed from adult females and incubated in containers containing a single strain each. The number of adult lice, and harvested egg strings varied, but all were incubated (Table 2). Table 2. Number of egg strings collected from each strain. Egg strings from replicate tanks were pooled. Most egg strings were part of a pair.
(§2) The subsequent generation (F2, Fig. 2) were both produced using the general procedure described above, although the hybrid strains were only crossed back to themselves to create multiple generation-hybrids. Collection of egg strings, which marked the establishment of a new generation, was done at 55 and 56 dpi respectively. Salmon that hosted the previous generation were re-used for reinfection with the next generation, but hosted only the same experimental strain.
(§3) Each strain, including both types of hybrids obtained in example 1 were quantified in their tolerance of deltamethrin at sampling points 1 and 2 representing the F1 and F2 generations for the hybrids (Fig. 1 and 2). Bioassays were performed according to standard guidelines (SEARCH Consortium, 2006, Sea lice resistance to chemotherapeutants: A handbook in resistance management. 2 ed.), with minor modifications. Only adult male lice were used for the bioassay, which after sampling (at 55 or 56 dpi) had been incubated overnight in running seawater (ca. 10 °C). The 30 min exposure to the prepared deltamethrin concentration was also carried out at ca. 10 °C, and higher concentrations than those described in the given protocol were included (Table S3). After exposure to deltamethrin, the lice were kept in running seawater (24 h at ca. 10 °C) until evaluation of the bioassays. […] EC50 values were calculated using probit analysis (PoloPlus 2.0; LeOra Software, CA, USA). Table 3a. Deltamethrin bioassays performed on sampling set 1

[2] = test system: LsGulen (pyrethroid sensitive strain)
Text: (§4) In order to investigate the inheritance and mechanism of pyrethroid resistance in L. salmonis, two strains (sensitive and resistant) and their reciprocal hybrids were used for a two-generation breeding experiment complimented with bioassays to measure tolerance (Fig. 2). The pyrethroid sensitive strain (hereon also referred to as LsGulen) was collected in June 2006 from newly slaughtered rainbow trout from Gulen in western Norway. The pyrethroid resistant strain (hereon also referred to as LsVikna) was collected in February 2009 from a salmon farm in Vikna, North Trøndelag, Norway. The resistant strain was collected on the basis of suspected reduced sensitivity to pyrethroids due to the fact that there had been reported a treatment failure on the farm from which it was collected. This was subsequently confirmed in bioassays with LsGulen as sensitive control.
as §3, with “Deltamethrin bioassays performed on sampling set 1” left out

[3] = test system: LsVikna (pyrethroid resistant strain); assay: Deltamethrin bioassay on adult male sea lice, pyrethroid resistant strain
Text: as §4
as §3, with “Deltamethrin bioassays performed on sampling set 1” left out

[4] = test system: LsHybridG (LsGulen as its maternal strain)
Protocol: as §1, §2, §3

SMILES: CC1(C)[C@H](C(=O)O[C@H](C#N)c2cccc(Oc3ccccc3)c2)[C@@H]1C=C(Br)Br [Deltamethrin, deltamethrin]
- survival of the bioassay ([1]; above 1 ppb, maternal hybrid strain of the resistant strain): survived the bioassay
- % Inactive ([1]; sampling set 1, F1, fish tank 02, dose 0.1 ppb): 0%
- % Inactive ([1]; sampling set 1, F1, fish tank 02, dose 0.3 ppb): 0%
- % Inactive ([1]; sampling set 1, F1, fish tank 02, dose 1 ppb): 5%
- % Inactive ([1]; sampling set 1, F1, fish tank 02, dose 3 ppb): 13%
- % Inactive ([1]; sampling set 1, F1, fish tank 02, dose 6 ppb): 5%
- % Inactive ([1]; sampling set 1, F1, fish tank 02, dose 12 ppb): 31%
- % Inactive ([1]; sampling set 1, F1, fish tank 06, dose 0.1 ppb): 0%
- % Inactive ([1]; sampling set 1, F1, fish tank 06, dose 0.3 ppb): 0%
- % Inactive ([1]; sampling set 1, F1, fish tank 06, dose 1 ppb): 7%
- % Inactive ([1]; sampling set 1, F1, fish tank 06, dose 3 ppb): 2%
- % Inactive ([1]; sampling set 1, F1, fish tank 06, dose 6 ppb): 9%
- % Inactive ([1]; sampling set 1, F1, fish tank 06, dose 12 ppb): 32%
- % Inactive ([1]; sampling set 2, F2, fish tank 06, dose 0.1 ppb): 0%
- % Inactive ([1]; sampling set 2, F2, fish tank 06, dose 0.3 ppb): 0%
- % Inactive ([1]; sampling set 2, F2, fish tank 06, dose 0.5 ppb): 0%
- % Inactive ([1]; sampling set 2, F2, fish tank 06, dose 1 ppb): 0%
- % Inactive ([1]; sampling set 2, F2, fish tank 06, dose 3 ppb): 16%
- % Inactive ([1]; sampling set 2, F2, fish tank 06, dose 6 ppb): 14%
- % Inactive ([1]; sampling set 2, F2, fish tank 06, dose 12 ppb): 21%
- % Inactive ([1]; sampling set 2, F2, fish tank 06, dose 20 ppb): 40%
- % Inactive ([1]; sampling set 2, F2, fish tank 09, dose 0.1 ppb): 14%
- % Inactive ([1]; sampling set 2, F2, fish tank 09, dose 0.3 ppb): 0%
- % Inactive ([1]; sampling set 2, F2, fish tank 09, dose 0.5 ppb): 3%
- % Inactive ([1]; sampling set 2, F2, fish tank 09, dose 1 ppb): 5%
- % Inactive ([1]; sampling set 2, F2, fish tank 09, dose 3 ppb): 0%
- % Inactive ([1]; sampling set 2, F2, fish tank 09, dose 6 ppb): 19%
- % Inactive ([1]; sampling set 2, F2, fish tank 09, dose 12 ppb): 8%
- % Inactive ([1]; sampling set 2, F2, fish tank 09, dose 20 ppb): 54%
- mortality ([2]; above 1 ppb, sensitive strain): 100%
- % Inactive ([2]; sampling set 1, F15, fish tank 04, dose 0.1 ppb): 0%
- % Inactive ([2]; sampling set 1, F15, fish tank 04, dose 0.3 ppb): 48%
- % Inactive ([2]; sampling set 1, F15, fish tank 04, dose 1 ppb): 100%
- % Inactive ([2]; sampling set 1, F15, fish tank 04, dose 3 ppb): 100%
- % Inactive ([2]; sampling set 1, F15, fish tank 04, dose 6 ppb): 100%
- % Inactive ([2]; sampling set 1, F15, fish tank 04, dose 12 ppb): 100%
- % Inactive ([2]; sampling set 1, F15, fish tank 10, dose 0.1 ppb): 0%
- % Inactive ([2]; sampling set 1, F15, fish tank 10, dose 0.3 ppb): 50%
- % Inactive ([2]; sampling set 1, F15, fish tank 10, dose 1 ppb): 100%
- % Inactive ([2]; sampling set 1, F15, fish tank 10, dose 3 ppb): 100%
- % Inactive ([2]; sampling set 1, F15, fish tank 10, dose 6 ppb): 100%
- % Inactive ([2]; sampling set 1, F15, fish tank 10, dose 12 ppb): 100%
- % Inactive ([2]; sampling set 2, F16, fish tank 03, dose 0.1 ppb): 5%
- % Inactive ([2]; sampling set 2, F16, fish tank 03, dose 0.3 ppb): 48%
- % Inactive ([2]; sampling set 2, F16, fish tank 03, dose 0.5 ppb): 86%
- % Inactive ([2]; sampling set 2, F16, fish tank 03, dose 1 ppb): 100%
- % Inactive ([2]; sampling set 2, F16, fish tank 03, dose 3 ppb): 100%
- % Inactive ([2]; sampling set 2, F16, fish tank 03, dose 6 ppb): 100%
- % Inactive ([2]; sampling set 2, F16, fish tank 04, dose 0.1 ppb): 8%
- % Inactive ([2]; sampling set 2, F16, fish tank 04, dose 0.3 ppb): 55%
- % Inactive ([2]; sampling set 2, F16, fish tank 04, dose 0.5 ppb): 95%
- % Inactive ([2]; sampling set 2, F16, fish tank 04, dose 1 ppb): 100%
- % Inactive ([2]; sampling set 2, F16, fish tank 04, dose 3 ppb): 100%
- % Inactive ([2]; sampling set 2, F16, fish tank 04, dose 6 ppb): 100%
- % Inactive ([2]; sampling set 2, F16, fish tank 04, dose 12 ppb): 100%
- survival of the bioassay ([3]; above 1 ppb, resistant strain): survived the bioassay
- % Inactive ([3]; sampling set 1, F6, fish tank 05, dose 0.1 ppb): 0%
- % Inactive ([3]; sampling set 1, F6, fish tank 05, dose 0.3 ppb): 0%
- % Inactive ([3]; sampling set 1, F6, fish tank 05, dose 1 ppb): 12%
- % Inactive ([3]; sampling set 1, F6, fish tank 05, dose 3 ppb): 27%
- % Inactive ([3]; sampling set 1, F6, fish tank 05, dose 6 ppb): 35%
- % Inactive ([3]; sampling set 1, F6, fish tank 05, dose 12 ppb): 41%
- % Inactive ([3]; sampling set 1, F6, fish tank 09, dose 0.1 ppb): 4%
- % Inactive ([3]; sampling set 1, F6, fish tank 09, dose 0.3 ppb): 0%
- % Inactive ([3]; sampling set 1, F6, fish tank 09, dose 1 ppb): 10%
- % Inactive ([3]; sampling set 1, F6, fish tank 09, dose 3 ppb): 19%
- % Inactive ([3]; sampling set 1, F6, fish tank 09, dose 6 ppb): 23%
- % Inactive ([3]; sampling set 1, F6, fish tank 09, dose 12 ppb): 28%
- % Inactive ([3]; sampling set 2, F7, fish tank 08, dose 0.1 ppb): 0%
- % Inactive ([3]; sampling set 2, F7, fish tank 08, dose 0.3 ppb): 0%
- % Inactive ([3]; sampling set 2, F7, fish tank 08, dose 0.5 ppb): 0%
- % Inactive ([3]; sampling set 2, F7, fish tank 08, dose 1 ppb): 0%
- % Inactive ([3]; sampling set 2, F7, fish tank 08, dose 3 ppb): 6%
- % Inactive ([3]; sampling set 2, F7, fish tank 08, dose 6 ppb): 18%
- % Inactive ([3]; sampling set 2, F7, fish tank 08, dose 12 ppb): 0%
- % Inactive ([3]; sampling set 2, F7, fish tank 08, dose 20 ppb): 39%
- mortality ([4]; above 1 ppb, maternal hybrid strain of the sensitive strain): 100%
- % Inactive ([4]; sampling set 1, F1, fish tank 01, dose 0.1 ppb): 0%
- % Inactive ([4]; sampling set 1, F1, fish tank 01, dose 0.3 ppb): 21%
- % Inactive ([4]; sampling set 1, F1, fish tank 01, dose 1 ppb): 100%
- % Inactive ([4]; sampling set 1, F1, fish tank 01, dose 3 ppb): 100%
- % Inactive ([4]; sampling set 1, F1, fish tank 01, dose 6 ppb): 100%
- % Inactive ([4]; sampling set 1, F1, fish tank 01, dose 12 ppb): 100%
- % Inactive ([4]; sampling set 1, F1, fish tank 07, dose 0.1 ppb): 18%
- % Inactive ([4]; sampling set 1, F1, fish tank 07, dose 0.3 ppb): 32%
- % Inactive ([4]; sampling set 1, F1, fish tank 07, dose 1 ppb): 100%
- % Inactive ([4]; sampling set 1, F1, fish tank 07, dose 3 ppb): 100%
- % Inactive ([4]; sampling set 1, F1, fish tank 07, dose 6 ppb): 100%
- % Inactive ([4]; sampling set 1, F1, fish tank 07, dose 12 ppb): 100%
- % Inactive ([4]; sampling set 2, F2, fish tank 07, dose 0.1 ppb): 0%
- % Inactive ([4]; sampling set 2, F2, fish tank 07, dose 0.3 ppb): 50%
- % Inactive ([4]; sampling set 2, F2, fish tank 07, dose 0.5 ppb): 85%
- % Inactive ([4]; sampling set 2, F2, fish tank 07, dose 1 ppb): 90%
- % Inactive ([4]; sampling set 2, F2, fish tank 07, dose 3 ppb): 100%
- % Inactive ([4]; sampling set 2, F2, fish tank 07, dose 6 ppb): 100%
- % Inactive ([4]; sampling set 2, F2, fish tank 07, dose 12 ppb): 100%
- % Inactive ([4]; sampling set 2, F2, fish tank 07, dose 20 ppb): 100%
- % Inactive ([4]; sampling set 2, F2, fish tank 10, dose 0.1 ppb): 5%
- % Inactive ([4]; sampling set 2, F2, fish tank 10, dose 0.3 ppb): 43%
- % Inactive ([4]; sampling set 2, F2, fish tank 10, dose 0.5 ppb): 72%
- % Inactive ([4]; sampling set 2, F2, fish tank 10, dose 1 ppb): 100%
- % Inactive ([4]; sampling set 2, F2, fish tank 10, dose 3 ppb): 100%
- % Inactive ([4]; sampling set 2, F2, fish tank 10, dose 6 ppb): 100%
- % Inactive ([4]; sampling set 2, F2, fish tank 10, dose 12 ppb): 100%
- % Inactive ([4]; sampling set 2, F2, fish tank 10, dose 20 ppb): 100%
